Inconclusive results are not listed. Where only a bound is given, the exact number is not on record here.

Broadly, the AC50 is the midpoint of the concentration-response curve, whichever way the signal moves.

A short description of the assay: TES1-eGFP NF-kB reporter inhibition versus Tet-On dsRED, dose response, selectivity assay for LMP1 NF-kB inhibitor project, imaging, HEK293T, dual-color eGFP/dsRED, cherry-picks (AID 588398). The settings on record: 48 h, dsRED channel counter-screen. On the technique in general: A counterscreen serves to expose hits that act by an unwanted route or on another target.
Compound `COc1cccc(/C=N/Nc2nc3ccccc3[nH]2)c1O` yielded an AC50 of 12 µM. To `Cc1nnc(SCC(=O)N2CCC(c3noc4ccc(F)cc34)CC2)s1` belongs 1.69 µM; to `CC1=C(C(=O)OCc2ccc3c(c2)OCO3)C(c2ccc(Cl)cc2)NC(=O)N1` (centres undefined), 0.1 µM; to `CC(=NNC(=S)Nc1ccccc1)c1ccccn1`, 1.37 µM. `CC[C@]1(C(=O)OC)[C@H]2C(=O)N(Cc3ccccc3)C(=O)[C@H]2[C@H]2CN=C(SCc3ccc(C#N)cc3)N21`: the AC50 was found to be 2.82 µM. To `O=S(=O)(c1ccc2c(c1)C(=NO)c1cc(S(=O)(=O)N3CCCCC3)ccc1-2)N1CCCCC1` belongs above 19.5 µM; to `O=Cc1ccc(-c2cccs2)s1`, 2.71 µM.

Turning to `CC(=NNC(=S)Nc1ccccc1Cl)c1ccccn1`, the AC50 was 1.37 µM. To `O=C(Nc1ccc(C(=O)N2CCOCC2)cc1)Nc1cccc(C(F)(F)F)c1` belongs 0.966 µM. With `COc1ccc(-n2c(C)c(C(C)=O)c3cc(OC(C)=O)ccc32)cc1`, the AC50 was determined as 1 µM. To `CC(C)(O)C#Cc1ccc([C@@H]2C[C@H]3CN(c4ccccc4)C(=O)[C@]34CCCN24)s1` belongs 14.9 µM. To `O=C(N/N=C/c1ccc[nH]1)c1ccc(COc2cccc3cccnc23)cc1` belongs 19.2 µM. In turn, `CN1CCN(/N=C/c2ccc(N(c3ccccc3)c3ccccc3)cc2)CC1` yielded an AC50 of 0.505 µM. To `NC(=O)c1sc2nccc(Nc3ccccc3)c2c1N` belongs 4.04 µM; to `CCCN(CC)c1ncnc2[nH]ncc12`, 1.41 µM; to `OCCCNc1nccc(-c2cc(Nc3cccc(Cl)c3)ncn2)n1`, 4.72 µM. To `CCC(=O)NC(c1ccc(Cl)cc1Cl)c1ccc2cccnc2c1O` (centres undefined) belongs 4.23 µM. To `Cc1ccc(-c2csc(=Nc3cccnc3)n2CCCn2ccnc2)cc1C` belongs 5.1 µM. As to `COc1cc([C@@H]2c3cc4c(cc3[C@@H](O[C@@H]3O[C@@H]5CO[C@@H](C)O[C@H]5[C@H](O)[C@H]3O)[C@H]3COC(=O)[C@H]23)OCO4)cc(OC)c1O`, the AC50 is 14.5 µM. The compound `N#CC(C#N)c1ccnc2ccccc12` came in with a half-maximal activity concentration (AC50) of 6.14 µM. To `Cc1nn(-c2ccccc2)c(Cl)c1C1C(C#N)=C(N)Oc2n[nH]c(C)c21` (centres undefined) belongs 11.5 µM; to `NC(=S)NN=Cc1nccc2c(C(F)(F)F)cccc12`, 4.06 µM; to `CC(=C/c1ccccc1)/C=N/n1c(-c2ccncc2)n[nH]c1=S`, 1.3 µM. Regarding `Cc1nn(-c2ccccc2)c(Cl)c1C(=O)N1CCN(c2ncnc3c2cnn3-c2ccccc2)CC1`, the AC50 is 12.9 µM.

In turn, `C[n+]1c2n(c3ccccc31)N=C(c1cc(C(C)(C)C)c(O)c(C(C)(C)C)c1)CS2` gave an AC50 of 10.8 µM. The AC50 values of the last two compounds are within 1.5-fold of each other. With `C=C1C(=O)C2=CC1CCC(=O)C1(C)CCC(OC(C)=O)C(C)(C)C1CC2O` (centres undefined), the AC50 was determined as 2.73 µM. To `CN1C(=O)N(C)c2ccc(C=O)c3cccc1c23` belongs 12.9 µM; to `CC1CC(C)C(=O)C(C(CC2CC(=O)NC(=O)C2)OC(=O)CC(=O)c2ccccc2)C1` (centres undefined), 5.02 µM.

The compound `CC(=NNc1nc2ccccc2o1)c1cc2ccccc2cn1` came in with an AC50 of 3.99 µM.

Turning to `Cc1ccc(C(=O)Nc2cccc(C(F)(F)F)c2)cc1Nc1ncnc2nc[nH]c12`, the AC50 amounted to 9.97 µM. `CCn1c2ccccc2c2cc(/C=N/NC(=O)c3ccncc3)ccc21` displayed an AC50 of 1.68 µM. For `CCCC(=O)NC(c1ccc(C(C)C)cc1)c1ccc2cccnc2c1O` (centres undefined), the AC50 turned out to be 4.16 µM. To `CCn1c2ccccc2c2cc(/C=N/n3c(-c4cc(C)[nH]n4)n[nH]c3=S)ccc21` belongs 0.862 µM; to `CCN(CC)c1ccc(/C=N/NC(=O)c2ccc3nc[nH]c3c2)c(O)c1`, 16.9 µM; to `CC(=NNC(=S)N1CCCC1)c1ccccn1`, 17.8 µM. To `NC(=S)N/N=C/c1ncc(C(F)(F)F)cc1Cl` belongs 12.1 µM; to `CC1Cc2ccccc2N1c1ncnc(N)c1[N+](=O)[O-]` (centres undefined), 0.411 µM; to `Oc1ccc2ccccc2c1N=Nc1ccccn1`, 7.53 µM.

Take `O=C(CF)N(O)c1ccc(C=Cc2ccccc2)cc1`: the AC50 was 1.51 µM. To `O=C(N/N=C/c1c(O)ccc2ccccc12)c1cccnc1` belongs 4.3 µM. To `Cc1[nH]n(-c2ccc(Br)cc2)c(=O)c1/C=N/NC(=O)c1ccccc1` belongs 11.2 µM.

The compound `CC(=NNc1nc2ccccc2s1)c1ncccn1` came in with an AC50 of 7.33 µM. To `CCOc1ccc(Nc2ncnc3ccc([N+](=O)[O-])cc23)cc1` belongs 1.93 µM; to `COc1cccc(/C=N/Nc2nccnc2Cl)c1O`, 12.1 µM. To `CC1CCN(C(=O)/C(=C\c2cccs2)NC(=O)c2ccccc2)CC1` belongs above 19.5 µM; to `CC(=NNC(=S)N1CC2CCC(CC2)C1)c1nccs1`, 4.15 µM; to `COc1ccc(-c2csc(Nc3cccc(C)n3)n2)cc1OC`, above 19.5 µM.

Turning to `O=C(N/N=C/c1sc2ccccc2c1O)c1cccc2ccccc12`, the AC50 was 4.27 µM. To `Cc1ccccc1C(=O)N1CCN(c2ccc(NC(=O)CSc3ccc(Cl)cc3)cc2)CC1` belongs 0.253 µM.

The record behind these values is PubChem BioAssay AID588398 (Broad Institute, 2011).
